The source of these data is PubChem BioAssay AID1259407 (Chemical Carcinogenesis Research Information System (CCRIS), 2018).

Structures are written as SMILES. The source made the active and inactive calls. No rule for the calls is given here.

This data set relates to CCRIS mutagenicity, Ames/micronucleus/aberration tests. Kind of data set: CCRIS mutagenicity studies.
The mark [1] stands for this setting: Test System: AMES SALMONELLA TYPHIMURIUM, Strain/Indicator: TA98, Metabolic Activation: HAMSTER, LIVER, S-9, AROCLOR 1254 (30%), Method: PREINCUBATION
Where [2] appears, read: Test System: AMES SALMONELLA TYPHIMURIUM, Strain/Indicator: TA98, Metabolic Activation: NONE, Method: PREINCUBATION
Setting [3] is: Test System: AMES SALMONELLA TYPHIMURIUM, Strain/Indicator: TA98, Metabolic Activation: RAT, LIVER, S-9, AROCLOR 1254 (30%), Method: PREINCUBATION
Setting [4] is: Test System: AMES SALMONELLA TYPHIMURIUM, Strain/Indicator: TA100, Metabolic Activation: HAMSTER, LIVER, S-9, AROCLOR 1254 (30%), Method: PREINCUBATION
[5] abbreviates: Test System: AMES SALMONELLA TYPHIMURIUM, Strain/Indicator: TA100, Metabolic Activation: NONE, Method: PREINCUBATION
The mark [6] stands for this setting: Test System: AMES SALMONELLA TYPHIMURIUM, Strain/Indicator: TA100, Metabolic Activation: RAT, LIVER, S-9, AROCLOR 1254 (30%), Method: PREINCUBATION
Setting [7] is: Test System: AMES SALMONELLA TYPHIMURIUM, Strain/Indicator: TA98, Metabolic Activation: NONE, Method: STANDARD PLATE.
[8] abbreviates: Test System: AMES SALMONELLA TYPHIMURIUM, Strain/Indicator: TA98, Metabolic Activation: RAT, LIVER, S-9, AROCLOR 1254, Method: STANDARD PLATE.

As for `O=[N+]([O-])c1c(O)c(Cl)cc(Cl)c1Cl`, the mutagenic call is “inactive; negative” (Test System: AMES SALMONELLA TYPHIMURIUM, Strain/Indicator: TA97, Metabolic Activation: HAMSTER, LIVER, S-9, AROCLOR 1254 (5 OR 10%), Method: PREINCUBATION); “inactive; negative” (Test System: AMES SALMONELLA TYPHIMURIUM, Strain/Indicator: TA97, Metabolic Activation: HAMSTER, LIVER, S-9, AROCLOR 1254 (30%), Method: PREINCUBATION); “inactive; negative” (Test System: AMES SALMONELLA TYPHIMURIUM, Strain/Indicator: TA97, Metabolic Activation: NONE, Method: PREINCUBATION); “inactive; negative” (Test System: AMES SALMONELLA TYPHIMURIUM, Strain/Indicator: TA97, Metabolic Activation: RAT, LIVER, S-9, AROCLOR 1254 (10%), Method: PREINCUBATION); “inactive; negative” (Test System: AMES SALMONELLA TYPHIMURIUM, Strain/Indicator: TA97, Metabolic Activation: RAT, LIVER, S-9, AROCLOR 1254 (30%), Method: PREINCUBATION); “inactive; negative” (Test System: AMES SALMONELLA TYPHIMURIUM, Strain/Indicator: TA98, Metabolic Activation: HAMSTER, LIVER, S-9, AROCLOR 1254 (10%), Method: PREINCUBATION). Further, the mutagenic call by setting is: under setting [1], “inactive; negative”; under setting [2], “inactive; negative”; (Test System: AMES SALMONELLA TYPHIMURIUM, Strain/Indicator: TA98, Metabolic Activation: RAT, LIVER, S-9, AROCLOR 1254 (10%), Method: PREINCUBATION) “inactive; negative”; under setting [3], “inactive; negative”; (Test System: AMES SALMONELLA TYPHIMURIUM, Strain/Indicator: TA100, Metabolic Activation: HAMSTER, LIVER, S-9, AROCLOR 1254 (10%), Method: PREINCUBATION) “inactive; negative”; under setting [4], “inactive; negative”. For the same compound, the mutagenic call is, setting by setting: under setting [5], “inactive; negative”; (Test System: AMES SALMONELLA TYPHIMURIUM, Strain/Indicator: TA100, Metabolic Activation: RAT, LIVER, S-9, AROCLOR 1254 (10%), Method: PREINCUBATION) “inactive; negative”; under setting [6], “inactive; negative”; (Test System: AMES SALMONELLA TYPHIMURIUM, Strain/Indicator: TA1535, Metabolic Activation: HAMSTER, LIVER, S-9, AROCLOR 1254 (10%), Method: PREINCUBATION) “inactive; negative”; (Test System: AMES SALMONELLA TYPHIMURIUM, Strain/Indicator: TA1535, Metabolic Activation: HAMSTER, LIVER, S-9, AROCLOR 1254 (30%), Method: PREINCUBATION) “inactive; negative”; (Test System: AMES SALMONELLA TYPHIMURIUM, Strain/Indicator: TA1535, Metabolic Activation: NONE, Method: PREINCUBATION) “inactive; negative”. The mutagenic call was “inactive; negative” (Test System: AMES SALMONELLA TYPHIMURIUM, Strain/Indicator: TA1535, Metabolic Activation: RAT, LIVER, S-9, AROCLOR 1254 (10%), Method: PREINCUBATION); “inactive; negative” (Test System: AMES SALMONELLA TYPHIMURIUM, Strain/Indicator: TA1535, Metabolic Activation: RAT, LIVER, S-9, AROCLOR 1254 (30%), Method: PREINCUBATION); “inactive; negative” (Test System: AMES SALMONELLA TYPHIMURIUM, Strain/Indicator: TA1537, Metabolic Activation: HAMSTER, LIVER, S-9, AROCLOR 1254 (30%), Method: PREINCUBATION); “inactive; negative” (Test System: AMES SALMONELLA TYPHIMURIUM, Strain/Indicator: TA1537, Metabolic Activation: NONE, Method: PREINCUBATION); “inactive; negative” (Test System: AMES SALMONELLA TYPHIMURIUM, Strain/Indicator: TA1537, Metabolic Activation: RAT, LIVER, S-9, AROCLOR 1254 (30%), Method: PREINCUBATION).
With `CCN(Cc1cccc(S(=O)(=O)[O-])c1)c1ccc(C(=C2C=CC(=[N+](C)C)C=C2)c2ccc(N(CC)Cc3cccc(S(=O)(=O)O)c3)cc2)cc1`, the mutagenic call was “active; positive” under setting [1]; “inactive; negative” under setting [2]; “active; positive” under setting [3]; “active; positive” (Test System: AMES SALMONELLA TYPHIMURIUM, Strain/Indicator: TA98, Metabolic Activation: RAT, LIVER, S-9, KC500 OR PHENOBARBITAL, Method: LIQUID SUSPENSION); “inactive; negative” under setting [4]; “inactive; negative” under setting [5]. The mutagenic call runs as follows: under setting [6], “inactive; negative”; (Test System: Mouse lymphoma, Strain/Indicator: L5178Y (tk+/tk-), Metabolic Activation: None, Method: Suspension/plate) “active; positive”; (Test System: Mouse lymphoma, Strain/Indicator: L5178Y (tk+/tk-), Metabolic Activation: Rat,Liver, S-9, Aroclor 1254, Method: Suspension/plate) “inactive; negative”.
With `O=NN1CCSC1C(O)C(O)C(O)C(O)CO` (centres undefined), the mutagenic call reads like this: under setting [2], “inactive; negative”; under setting [7], “inactive; negative”; (Test System: AMES SALMONELLA TYPHIMURIUM, Strain/Indicator: TA98, Metabolic Activation: RAT, LIVER, S-9, AROCLOR 1254, Method: PREINCUBATION) “inactive; negative”; under setting [8], “inactive; negative”; under setting [5], “active; positive”; (Test System: AMES SALMONELLA TYPHIMURIUM, Strain/Indicator: TA100, Metabolic Activation: NONE, Method: STANDARD PLATE) “active; positive”. The mutagenic call is “active; positive” (Test System: AMES SALMONELLA TYPHIMURIUM, Strain/Indicator: TA100, Metabolic Activation: RAT, LIVER, S-9, AROCLOR 1254, Method: PREINCUBATION) and “active; positive” (Test System: AMES SALMONELLA TYPHIMURIUM, Strain/Indicator: TA100, Metabolic Activation: RAT, LIVER, S-9, AROCLOR 1254, Method: STANDARD PLATE).
Take `CN(C)N=Nc1ccccc1`: the mutagenic call reads like this: (Test System: AMES SALMONELLA TYPHIMURIUM, Strain/Indicator: G46, Metabolic Activation: NONE, Method: STANDARD PLATE) “active; positive”; (Test System: AMES SALMONELLA TYPHIMURIUM, Strain/Indicator: G46, Metabolic Activation: RAT, LIVER, S-9, PHENOBARBITAL, Method: STANDARD PLATE) “active; positive”.
As to `C1=CC2=C3OC3=C3c4ccc5ccccc5c4CC(=C1)C23` (centres undefined), the mutagenic call reads like this: under setting [7], “active; positive”; under setting [8], “active; positive”.
